# Experimental data taken from US5840684A, “Glycopeptide antibiotic derivatives” (Eli Lilly and Company, priority 1995, dated 1998).
# Columns and labels:
# [1] = system: Entercoccus faecium 180-1; experiment: broth micro-dilution MIC; format: cell-based
# Method: (§1) The MIC's were determined using a standard broth micro-dilution assay.
# [2] = system: Staphylococcus aureus SA1199; experiment: broth micro-dilution MIC; format: cell-based
# Method: as §1
# [3] = system: Staphylococcus aureus 491; experiment: broth micro-dilution MIC; format: cell-based
# Method: as §1
# [4] = system: Staphylococcus aureus X400; experiment: broth micro-dilution MIC; format: cell-based
# Method: as §1
# [5] = system: Staphylococcus aureus 446; experiment: broth micro-dilution MIC; format: cell-based
# Method: as §1
# [6] = system: Staphylococcus aureus 489; experiment: broth micro-dilution MIC; format: cell-based
# Method: as §1
# [7] = system: Staphylococcus aureus X778; experiment: broth micro-dilution MIC; format: cell-based
# Method: as §1
# [8] = system: Staphylococcus aureus 447; experiment: broth micro-dilution MIC; format: cell-based
# Method: as §1
# [9] = system: Staphylococcus aureus SA1199A; experiment: broth micro-dilution MIC; format: cell-based
# Method: as §1
# [10] = system: Streptococcus pyogenes C203; experiment: broth micro-dilution MIC; format: cell-based
# Method: as §1
# Entercoccus faecium 276 = experiment: broth micro-dilution MIC; format: cell-based
# Method: as §1
# [11] = system: Staphylococcus aureus S13E; format: cell-based
# Method: as §1
# [12] = system: Staphylococcus aureus SA1199B; format: cell-based
# Method: as §1
# [13] = system: vancomycin-susceptible enterococci; experiment: broth micro-dilution, mean geometric MIC; format: cell-based, Enterococcus faecium and Enterococcus faecalis; conditions: enterococci, 24-hour incubation
# Entercoccus faecium 2041 = experiment: broth micro-dilution MIC; format: cell-based; conditions: Entercoccus faecium 2041
# Method: (§2) The formula I compounds have in vitro and in vivo activity against Gram-positive pathogenic bacteria. The MIC's were determined using a standard broth micro-dilution assay.
# [14] = system: Staphylococcus epidermidis 270; experiment: broth micro-dilution MIC; format: cell-based
# Method: as §2
# Entercoccus faecium 180 = experiment: broth micro-dilution MIC; format: cell-based; conditions: Entercoccus faecium 180
# Method: as §2
# [15] = system: Staphylococcus haemolyticus 105; experiment: broth micro-dilution MIC; format: cell-based
# Method: as §2
# [16] = system: Enterococcus gallinarum 245; experiment: broth micro-dilution MIC; format: cell-based; conditions: Enterococcus gallinarum 245
# Method: as §2
# [17] = system: Staphylococcus haemolyticus 415; experiment: broth micro-dilution MIC; format: cell-based
# Method: as §2
# Escherichia coli EC14 = experiment: broth micro-dilution MIC; format: cell-based
# Method: as §2
# [18] = system: Haemophilus influenzae RD; experiment: broth micro-dilution MIC; format: cell-based; conditions: Haemophilus influenzae RD
# Method: as §2
# [19] = system: Streptococcus pneumoniae P1; experiment: broth micro-dilution MIC; format: cell-based
# Method: as §2
# [20] = system: vancomycin-resistant enterococci; experiment: broth micro-dilution, mean geometric MIC; format: cell-based, Enterococcus faecium and Enterococcus faecalis; conditions: enterococci, 24-hour incubation
Structure (SMILES),MIC [1] [µg/mL],MIC [2] [µg/mL],MIC [3] [µg/mL],MIC [4] [µg/mL],MIC [5] [µg/mL],MIC [6] [µg/mL],MIC [7] [µg/mL],MIC [8] [µg/mL],MIC [9] [µg/mL],MIC [10] [µg/mL],MIC (Entercoccus faecium 276) [µg/mL],MIC [11] [µg/mL],MIC [12] [µg/mL],"mean geometric MIC, Vancomycin Sensitive Strains [13] [µg/mL]",MIC (Entercoccus faecium 2041) [µg/mL],MIC [14] [µg/mL],MIC (Entercoccus faecium 180) [µg/mL],MIC [15] [µg/mL],MIC [16] [µg/mL],MIC [17] [µg/mL],further results
CNC(CC(C)C)C(=O)NC1C(=O)NC(CC(N)=O)C(=O)NC2C(=O)NC3C(=O)NC(C(=O)NC(C(=O)O)c4cc(O)cc(O)c4-c4cc3ccc4O)C(OC3CC(C)(NCc4c5ccccc5c(C)c5ccccc45)C(O)C(C)O3)c3ccc(c(Cl)c3)Oc3cc2cc(c3OC2OC(CO)C(O)C(O)C2OC2CC(C)(NCc3c4ccccc4c(C)c4ccccc34)C(O)C(C)O2)Oc2ccc(cc2Cl)C1O (stereo not drawn) [Compound 283],0.125,32,4,16,16,8,8,32,4,≤ 0.06,16,4,32,1.7,2,16,4,> 64,32,32,"MIC (Escherichia coli EC14): > 64 µg/mL; MIC [18]: > 64 µg/mL; MIC [19]: ≤ 0.06 µg/mL; mean geometric MIC, Vancomycin Resistant Strains [20]: 32 µg/mL"
CNC(CC(C)C)C(=O)NC1C(=O)NC(CC(N)=O)C(=O)NC2C(=O)NC3C(=O)NC(C(=O)NC(C(=O)O)c4cc(O)cc(O)c4-c4cc3ccc4O)C(OC3CC(C)(NCc4ccc(-c5ccc(Cl)cc5)cc4)C(O)C(C)O3)c3ccc(c(Cl)c3)Oc3cc2cc(c3OC2OC(CO)C(O)C(O)C2OC2CC(C)(NCc3ccc(-c4ccc(Cl)cc4)cc3)C(O)C(C)O2)Oc2ccc(cc2Cl)C1O.O=C(O)C(F)(F)F (stereo not drawn) [Compound 254],0.25,8,1,8,32,16,4,16,0.5,0.5,8,32,16,0.5,4,8,0.25,16,16,16,"MIC (Escherichia coli EC14): > 64 µg/mL; MIC [18]: > 64 µg/mL; MIC [19]: ≤ 0.06 µg/mL; mean geometric MIC, Vancomycin Resistant Strains [20]: 2 µg/mL"
CNC(CC(C)C)C(=O)NC1C(=O)NC(CC(N)=O)C(=O)NC2C(=O)NC3C(=O)NC(C(=O)NC(C(=O)O)c4cc(O)cc(O)c4-c4cc3ccc4O)C(OC3CC(C)(NCc4ccc(-c5ccccc5)cc4)C(O)C(C)O3)c3ccc(c(Cl)c3)Oc3cc2cc(c3OC2OC(CO)C(O)C(O)C2OC2CC(C)(NCc3ccc(-c4ccccc4)cc3)C(O)C(C)O2)Oc2ccc(cc2Cl)C1O (stereo not drawn) [Compound 248],≤ 0.06,1,1,4,2,2,4,4,1,≤ 0.06,2,0.5,8,0.66,1,0.5,0.25,2,4,4,"MIC (Escherichia coli EC14): > 64 µg/mL; MIC [18]: > 64 µg/mL; MIC [19]: ≤ 0.06 µg/mL; mean geometric MIC, Vancomycin Resistant Strains [20]: 2 µg/mL"
COc1ccc2nc(-c3ccccc3)cc(CNC3(C)CC(OC4C(Oc5c6cc7cc5Oc5ccc(cc5Cl)C(OC5CC(C)(N)C(O)C(C)O5)C5NC(=O)C(NC(=O)C7NC(=O)C(CC(N)=O)NC(=O)C(NC(=O)C(CC(C)C)N(C)Cc7cc(-c8ccccc8)nc8ccc(OC)cc78)C(O)c7ccc(c(Cl)c7)O6)c6ccc(O)c(c6)-c6c(O)cc(O)cc6C(C(=O)O)NC5=O)OC(CO)C(O)C4O)OC(C)C3O)c2c1 (stereo not drawn) [Compound 277],0.5,16,8,32,64,16,32,> 64,1,≤ 0.06,1,16,16,1.1,2,16,2,> 64,> 64,> 64,"MIC (Escherichia coli EC14): > 64 µg/mL; MIC [18]: > 64 µg/mL; MIC [19]: ≤ 0.06 µg/mL; mean geometric MIC, Vancomycin Resistant Strains [20]: 32 µg/mL"
CC(C)CC(C(=O)NC1C(=O)NC(CC(N)=O)C(=O)NC2C(=O)NC3C(=O)NC(C(=O)NC(C(=O)O)c4cc(O)cc(O)c4-c4cc3ccc4O)C(OC3CC(C)(N)C(O)C(C)O3)c3ccc(c(Cl)c3)Oc3cc2cc(c3OC2OC(CO)C(O)C(O)C2OC2CC(C)(NCc3cccc4c3OCO4)C(O)C(C)O2)Oc2ccc(cc2Cl)C1O)N(C)Cc1cccc2c1OCO2 (stereo not drawn) [Compound 269],0.125,0.25,1,0.5,2,0.25,0.25,4,≤ 0.06,≤ 0.06,0.125,1,0.5,1.1,0.125,8,4,8,4,4,"MIC (Escherichia coli EC14): > 64 µg/mL; MIC [18]: > 64 µg/mL; MIC [19]: ≤ 0.06 µg/mL; mean geometric MIC, Vancomycin Resistant Strains [20]: 38 µg/mL"
CNC(CC(C)C)C(=O)NC1C(=O)NC(CC(N)=O)C(=O)NC2C(=O)NC3C(=O)NC(C(=O)NC(C(=O)O)c4cc(O)cc(O)c4-c4cc3ccc4O)C(OC3CC(C)(NCc4ccc(C(F)(F)F)cc4)C(O)C(C)O3)c3ccc(c(Cl)c3)Oc3cc2cc(c3OC2OC(CO)C(O)C(O)C2OC2CC(C)(NCc3ccc(C(F)(F)F)cc3)C(O)C(C)O2)Oc2ccc(cc2Cl)C1O (stereo not drawn) [Compound 272],≤ 0.06,0.25,0.25,0.125,0.25,0.125,0.125,0.25,≤ 0.06,≤ 0.06,0.125,0.125,≤ 0.06,0.072,0.125,≤ 0.06,0.5,0.125,0.5,0.5,"MIC (Escherichia coli EC14): > 64 µg/mL; MIC [18]: > 64 µg/mL; MIC [19]: ≤ 0.06 µg/mL; mean geometric MIC, Vancomycin Resistant Strains [20]: 4.75 µg/mL"
CC(C)CC(C(=O)NC1C(=O)NC(CC(N)=O)C(=O)NC2C(=O)NC3C(=O)NC(C(=O)NC(C(=O)O)c4cc(O)cc(O)c4-c4cc3ccc4O)C(OC3CC(C)(NCc4ccc(-c5ccccc5)cc4)C(O)C(C)O3)c3ccc(c(Cl)c3)Oc3cc2cc(c3OC2OC(CO)C(O)C(O)C2OC2CC(C)(NCc3ccc(-c4ccccc4)cc3)C(O)C(C)O2)Oc2ccc(cc2Cl)C1O)N(C)Cc1ccc(-c2ccccc2)cc1 (stereo not drawn) [Compound 249],4,> 64,32,> 64,64,> 64,> 64,> 64,8,0.5,> 64,> 64,> 64,3.5,> 64,32,16,> 64,> 64,> 64,"MIC (Escherichia coli EC14): > 64 µg/mL; MIC [18]: > 64 µg/mL; MIC [19]: 1 µg/mL; mean geometric MIC, Vancomycin Resistant Strains [20]: 11 µg/mL"
